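Test compounds were applied to cells in 96-well plates for 48 hours at 5 doses. The concentration for 50% growth inhibition is given as GI50. TGI denotes the concentration required for complete inhibition of growth.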

Some test systems named below: UO-31 renal; HCT-116 colon; HT29 colon; SW-620 colon; SF-539 CNS; M14 melanoma; COLO 205 colon; NCI-H226 lung; HL-60(TB) leukemia; HOP-92 NSCLC.
Experiment in all cases: NCI-60 cell line screen, 48 h

On to `CCC[CH2][Sn]([CH2]CCC)([O]c1cccc2cccnc12)[O]c1cccc2cccnc12`, for which the GI50 is 265 nM in the experiment on UO-31 renal; 189 nM with HCT-116 colon; 484 nM in the experiment on HT29 colon; 179 nM in the experiment on SW-620 colon; 0.219 µM in the experiment with SF-539 CNS; 186 nM with M14 melanoma. Also, in the experiment with COLO 205 colon, the GI50 was 482 nM. The TGI in the experiment on UO-31 renal was 0.528 µM; in the experiment on HCT-116 colon it was 0.385 µM; with HT29 colon it was 1.72 µM; in the experiment on SW-620 colon it was 0.429 µM; with SF-539 CNS it was 0.514 µM; in the experiment on M14 melanoma it was 0.369 µM. The compound also showed a TGI in the experiment with COLO 205 colon of 1.7 µM.

On to `CC/C=C\C[C@H](F)C/C=C1/C(=O)C=C[C@@H]1C/C=C\CCCC(=O)OC`, for which the GI50 is 2130 nM in the experiment with UO-31 renal; 880 nM with HCT-116 colon; 1690 nM in the experiment on HT29 colon; 1620 nM in the experiment with SW-620 colon; 22.2 µM with NCI-H226 lung; 4.26 µM with SF-539 CNS. The values for the GI50 in the experiment on HL-60(TB) leukemia, with M14 melanoma and in the experiment with COLO 205 colon were 1520 nM, 1650 nM and 1220 nM, respectively. In addition, the TGI in the experiment with UO-31 renal came out at 9.72 µM; with HCT-116 colon it was 1.79 µM; with HT29 colon, 4.67 µM; in the experiment on SW-620 colon, 4.73 µM; with NCI-H226 lung it was 44.6 µM; with SF-539 CNS, 11.2 µM. Further, the results for the TGI with HL-60(TB) leukemia, in the experiment on M14 melanoma and in the experiment on COLO 205 colon were 6.29 µM, 5.8 µM and 2.72 µM, respectively.

For `N#CC12CCC1C1CCCCC12N1CCSCC1` (configuration not stated), the TGI in the experiment on UO-31 renal, in the experiment on HCT-116 colon, in the experiment with HT29 colon, in the experiment on SW-620 colon, with HOP-92 NSCLC and with SF-539 CNS was greater than 100 µM throughout. Further, the TGI in the experiment with HL-60(TB) leukemia is 46.1 µM; with COLO 205 colon, greater than 100 µM.

In the case of `COc1cc(OC)c(C(=O)c2cccs2)cc1N`, the TGI in the experiment with UO-31 renal, with HT29 colon, in the experiment with SW-620 colon, in the experiment on SF-539 CNS, in the experiment with M14 melanoma and in the experiment with COLO 205 colon was greater than 100 µM each time.

Consider `C[C@@]1(C(=O)O)CCC[C@]2(C)C1CC[C@@]13C[C@@](O)(CC[C@]12O)[C@@]1(CO1)C3` (some centres not stated), for which the GI50 was greater than 100000 nM in the experiment on UO-31 renal; greater than 100000 nM in the experiment on HCT-116 colon; greater than 100000 nM in the experiment with HT29 colon; greater than 100000 nM with SW-620 colon; greater than 100 µM in the experiment with NCI-H226 lung; greater than 100 µM in the experiment with SF-539 CNS. For the same compound, the GI50 in the experiment on HL-60(TB) leukemia, with M14 melanoma and in the experiment on COLO 205 colon was greater than 100000 nM in each case. Besides, the TGI in the experiment with UO-31 renal, with HCT-116 colon, with HT29 colon, with SW-620 colon, with NCI-H226 lung and with SF-539 CNS was greater than 100 µM throughout. Further, the TGI in the experiment with HL-60(TB) leukemia, in the experiment on M14 melanoma and with COLO 205 colon was greater than 100 µM each time.

As for `O=c1c2ccc(S(=O)(=O)c3ccc4c(=O)n5c6ccccc6nc5c5cccc3c45)c3cccc(c32)c2nc3ccccc3n12`, the TGI with UO-31 renal, in the experiment with HCT-116 colon, in the experiment on HT29 colon, in the experiment with NCI-H226 lung, in the experiment on SF-539 CNS and in the experiment on M14 melanoma was greater than 100 µM each time. Further, the TGI in the experiment on COLO 205 colon is greater than 100 µM.

Regarding `Cc1n[nH]c(=S)n(C)c1=S`, the TGI in the experiment on UO-31 renal, with HCT-116 colon, with SW-620 colon, in the experiment with NCI-H226 lung, in the experiment with HOP-92 NSCLC and with SF-539 CNS was greater than 100 µM in each case. Moreover, the TGI with M14 melanoma and with COLO 205 colon was greater than 100 µM each time.

Turning to `O=c1[nH]c2ccccc2c2nc3ccccc3n12`, the TGI with UO-31 renal is greater than 100 µM; in the experiment with HCT-116 colon, greater than 100 µM; in the experiment on HT29 colon, greater than 100 µM; in the experiment on SW-620 colon it was greater than 100 µM; in the experiment on HOP-92 NSCLC it was greater than 100 µM; in the experiment on SF-539 CNS it was 69.1 µM. Moreover, the TGI in the experiment with HL-60(TB) leukemia, in the experiment with M14 melanoma and in the experiment on COLO 205 colon was greater than 100 µM throughout.

As for `COc1ccc(/C=C2\CN(C(=O)C(Cl)Cl)C/C(=C\c3ccc(OC)cc3)C2=O)cc1`, the GI50 was 1330 nM with UO-31 renal; 234 nM in the experiment with HCT-116 colon; 351 nM in the experiment with SW-620 colon; 2.47 µM in the experiment on NCI-H226 lung; 791 nM with HL-60(TB) leukemia. Besides, the TGI in the experiment with UO-31 renal stood at 2.61 µM; with HCT-116 colon, 0.653 µM; in the experiment on SW-620 colon, 1.78 µM; with NCI-H226 lung, 7.65 µM; in the experiment on HL-60(TB) leukemia it was 7.52 µM.

As for `COC(=O)c1ccccc1N(C(=O)c1ccccc1)c1ccccc1C`, the TGI was greater than 100 µM in the experiment on UO-31 renal; greater than 100 µM in the experiment with HCT-116 colon; greater than 100 µM in the experiment with HT29 colon; greater than 100 µM with SW-620 colon; greater than 100 µM in the experiment with NCI-H226 lung; 43.1 µM with HL-60(TB) leukemia. The values for the TGI in the experiment on M14 melanoma and in the experiment with COLO 205 colon were 73.1 µM and 54.5 µM, respectively.

For `Cc1c(O)c(N=Nc2nc3ccccc3s2)c2ccccc2c1O`, the GI50 with UO-31 renal was 18800 nM; in the experiment on HCT-116 colon it was 22600 nM; in the experiment on SW-620 colon, 25900 nM; in the experiment with HOP-92 NSCLC, 33.9 µM; with SF-539 CNS it was 18.3 µM; with HL-60(TB) leukemia, greater than 50000 nM. The GI50 in the experiment with M14 melanoma was 33500 nM; with COLO 205 colon, 21400 nM. Further, the TGI in the experiment with UO-31 renal, with HCT-116 colon, with SW-620 colon, with HOP-92 NSCLC, in the experiment with SF-539 CNS and in the experiment on HL-60(TB) leukemia was greater than 50 µM each time. Besides, the TGI with M14 melanoma and in the experiment on COLO 205 colon was greater than 50 µM throughout.

Turning to `CC(=O)OC1CCC2(C)C(CCC3C2CC(=O)C2(C)C3CC(N3CC3)C2C(C)=O)C1` (configuration not stated), the TGI with UO-31 renal was 46.4 µM; in the experiment on HCT-116 colon, greater than 100 µM; in the experiment with HT29 colon, greater than 100 µM; in the experiment on SW-620 colon, greater than 100 µM; in the experiment with NCI-H226 lung it was 37.8 µM; with HOP-92 NSCLC it was 43.1 µM. The TGI with SF-539 CNS came to 37.3 µM; with M14 melanoma, 51.7 µM; in the experiment on COLO 205 colon it was 35.7 µM.

Consider `CCCCCOCC(O)CO` (configuration not stated), for which the TGI with HCT-116 colon, in the experiment on SW-620 colon, in the experiment on NCI-H226 lung, with HOP-92 NSCLC, in the experiment with SF-539 CNS and with COLO 205 colon was greater than 100 µM in each case.

The record behind these values is PubChem BioAssay (NCI).
